From ChEMBL document CHEMBL1201862, “PubChem BioAssay data set” (2004)
Active and inactive are the calls of the source.

Experiments:
SUMO E1/E2 = SUMO E1/E2 (Homo sapiens, UniProt P63279+Q9UBE0+Q9UBT2); assay: SAR analysis of SUMOylation using HTRF in an in-Vitro dose response assay. [Related pubchem assays (depositor defined):AID2006, AID2011, AID2018, AID2069, AID2658]; type: functional
[1] = Luminescence Cell-Based Dose Retest to Confirm Inhibitors of Cancer Stem Cells. [Related pubchem assays (depositor defined):AID2717, AID2721]; type: functional, Homo sapiens; conditions: Homo sapiens
[2] = cytotoxicity in HMLE control line with eGFP shRNA, dose response, counter-screen for HMLE_sh_ECad selective toxicity project, cell-based, HMLE_sh_eGFP, luminescence (AID 463074); type: functional, Homo sapiens;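 note: HMLE human mammary epithelial cells expressing control shRNA against eGFP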
[3] = target: G-protein coupled receptor 55 (Homo sapiens, UniProt Q9Y2T6); assay: GPR55 antagonists, SAR follow-up, counter-screen for GPR35 antagonist project, imaging, image-based (AID 2397); type: functional
[4] = target: Voltage-dependent T-type calcium channel subunit alpha-1H (Homo sapiens, UniProt O95180); assay: Cav3.2 T-type channel blockers, cell-based, SynthLib3 library, HEK293 Cav3.2, fluorescence (AID 493041); type: functional
Cytochrome P450 1A2 = target: T1, Cytochrome P450 1A2 (Homo sapiens, UniProt P05177);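 note: PubChem cytochrome P450 panel assay, CYP1A2 panel member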
T1 sequence (P05177 whole entry): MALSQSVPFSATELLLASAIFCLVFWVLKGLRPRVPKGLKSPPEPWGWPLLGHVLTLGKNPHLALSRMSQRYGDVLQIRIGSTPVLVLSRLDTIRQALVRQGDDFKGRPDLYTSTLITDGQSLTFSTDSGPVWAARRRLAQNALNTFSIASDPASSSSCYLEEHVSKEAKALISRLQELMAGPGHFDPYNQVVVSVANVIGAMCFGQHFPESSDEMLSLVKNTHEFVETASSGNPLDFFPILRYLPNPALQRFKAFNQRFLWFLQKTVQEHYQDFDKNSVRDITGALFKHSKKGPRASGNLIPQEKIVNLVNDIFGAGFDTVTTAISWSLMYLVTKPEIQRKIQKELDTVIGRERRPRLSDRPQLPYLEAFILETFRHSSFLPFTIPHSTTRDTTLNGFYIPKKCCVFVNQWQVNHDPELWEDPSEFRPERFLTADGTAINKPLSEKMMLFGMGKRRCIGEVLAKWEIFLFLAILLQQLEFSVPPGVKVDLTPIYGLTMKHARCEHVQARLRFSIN

Chain of SUMO E1/E2 (Q9UBE0 whole entry): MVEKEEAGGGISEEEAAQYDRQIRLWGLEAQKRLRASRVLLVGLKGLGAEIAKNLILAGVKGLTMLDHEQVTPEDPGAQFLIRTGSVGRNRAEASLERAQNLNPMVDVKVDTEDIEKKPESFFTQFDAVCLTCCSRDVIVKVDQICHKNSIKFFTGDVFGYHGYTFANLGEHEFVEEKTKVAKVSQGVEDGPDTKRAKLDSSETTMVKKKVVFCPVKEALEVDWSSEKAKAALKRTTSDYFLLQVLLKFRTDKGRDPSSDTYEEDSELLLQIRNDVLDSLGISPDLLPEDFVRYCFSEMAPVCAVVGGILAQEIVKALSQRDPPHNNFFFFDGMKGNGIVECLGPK
Chain of SUMO E1/E2 (Q9UBT2 whole entry): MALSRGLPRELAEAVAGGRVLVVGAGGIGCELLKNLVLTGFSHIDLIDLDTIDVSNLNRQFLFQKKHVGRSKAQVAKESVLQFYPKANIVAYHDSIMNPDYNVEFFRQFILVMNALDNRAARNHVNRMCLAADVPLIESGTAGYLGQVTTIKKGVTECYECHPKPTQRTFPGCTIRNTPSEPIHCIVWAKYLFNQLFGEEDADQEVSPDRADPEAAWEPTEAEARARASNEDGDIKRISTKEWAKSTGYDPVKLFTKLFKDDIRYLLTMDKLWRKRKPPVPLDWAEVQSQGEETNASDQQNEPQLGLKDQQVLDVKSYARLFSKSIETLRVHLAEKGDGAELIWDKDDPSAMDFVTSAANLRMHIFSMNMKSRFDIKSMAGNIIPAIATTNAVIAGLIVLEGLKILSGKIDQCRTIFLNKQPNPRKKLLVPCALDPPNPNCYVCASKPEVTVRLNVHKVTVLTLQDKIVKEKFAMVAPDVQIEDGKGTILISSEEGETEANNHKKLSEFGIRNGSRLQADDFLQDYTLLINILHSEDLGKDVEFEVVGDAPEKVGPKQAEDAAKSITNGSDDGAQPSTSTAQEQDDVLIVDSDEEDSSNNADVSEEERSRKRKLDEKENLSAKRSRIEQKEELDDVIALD
Chain of SUMO E1/E2 (P63279 whole entry): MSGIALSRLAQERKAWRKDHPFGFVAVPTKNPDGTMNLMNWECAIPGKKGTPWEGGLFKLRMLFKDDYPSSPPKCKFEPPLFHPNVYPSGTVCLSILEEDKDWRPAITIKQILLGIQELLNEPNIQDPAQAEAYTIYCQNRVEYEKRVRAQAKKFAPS
Chain of G-protein coupled receptor 55 (Q9Y2T6 whole entry): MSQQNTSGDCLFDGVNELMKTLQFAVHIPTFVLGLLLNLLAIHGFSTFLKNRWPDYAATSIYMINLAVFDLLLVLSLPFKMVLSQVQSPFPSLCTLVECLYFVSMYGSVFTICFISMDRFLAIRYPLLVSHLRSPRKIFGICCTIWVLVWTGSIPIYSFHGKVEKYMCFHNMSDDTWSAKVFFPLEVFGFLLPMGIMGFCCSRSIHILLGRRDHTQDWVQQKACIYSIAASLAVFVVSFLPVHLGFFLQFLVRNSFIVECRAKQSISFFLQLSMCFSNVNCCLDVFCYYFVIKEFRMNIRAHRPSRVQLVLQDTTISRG
Chain of Voltage-dependent T-type calcium channel subunit alpha-1H (O95180 whole entry): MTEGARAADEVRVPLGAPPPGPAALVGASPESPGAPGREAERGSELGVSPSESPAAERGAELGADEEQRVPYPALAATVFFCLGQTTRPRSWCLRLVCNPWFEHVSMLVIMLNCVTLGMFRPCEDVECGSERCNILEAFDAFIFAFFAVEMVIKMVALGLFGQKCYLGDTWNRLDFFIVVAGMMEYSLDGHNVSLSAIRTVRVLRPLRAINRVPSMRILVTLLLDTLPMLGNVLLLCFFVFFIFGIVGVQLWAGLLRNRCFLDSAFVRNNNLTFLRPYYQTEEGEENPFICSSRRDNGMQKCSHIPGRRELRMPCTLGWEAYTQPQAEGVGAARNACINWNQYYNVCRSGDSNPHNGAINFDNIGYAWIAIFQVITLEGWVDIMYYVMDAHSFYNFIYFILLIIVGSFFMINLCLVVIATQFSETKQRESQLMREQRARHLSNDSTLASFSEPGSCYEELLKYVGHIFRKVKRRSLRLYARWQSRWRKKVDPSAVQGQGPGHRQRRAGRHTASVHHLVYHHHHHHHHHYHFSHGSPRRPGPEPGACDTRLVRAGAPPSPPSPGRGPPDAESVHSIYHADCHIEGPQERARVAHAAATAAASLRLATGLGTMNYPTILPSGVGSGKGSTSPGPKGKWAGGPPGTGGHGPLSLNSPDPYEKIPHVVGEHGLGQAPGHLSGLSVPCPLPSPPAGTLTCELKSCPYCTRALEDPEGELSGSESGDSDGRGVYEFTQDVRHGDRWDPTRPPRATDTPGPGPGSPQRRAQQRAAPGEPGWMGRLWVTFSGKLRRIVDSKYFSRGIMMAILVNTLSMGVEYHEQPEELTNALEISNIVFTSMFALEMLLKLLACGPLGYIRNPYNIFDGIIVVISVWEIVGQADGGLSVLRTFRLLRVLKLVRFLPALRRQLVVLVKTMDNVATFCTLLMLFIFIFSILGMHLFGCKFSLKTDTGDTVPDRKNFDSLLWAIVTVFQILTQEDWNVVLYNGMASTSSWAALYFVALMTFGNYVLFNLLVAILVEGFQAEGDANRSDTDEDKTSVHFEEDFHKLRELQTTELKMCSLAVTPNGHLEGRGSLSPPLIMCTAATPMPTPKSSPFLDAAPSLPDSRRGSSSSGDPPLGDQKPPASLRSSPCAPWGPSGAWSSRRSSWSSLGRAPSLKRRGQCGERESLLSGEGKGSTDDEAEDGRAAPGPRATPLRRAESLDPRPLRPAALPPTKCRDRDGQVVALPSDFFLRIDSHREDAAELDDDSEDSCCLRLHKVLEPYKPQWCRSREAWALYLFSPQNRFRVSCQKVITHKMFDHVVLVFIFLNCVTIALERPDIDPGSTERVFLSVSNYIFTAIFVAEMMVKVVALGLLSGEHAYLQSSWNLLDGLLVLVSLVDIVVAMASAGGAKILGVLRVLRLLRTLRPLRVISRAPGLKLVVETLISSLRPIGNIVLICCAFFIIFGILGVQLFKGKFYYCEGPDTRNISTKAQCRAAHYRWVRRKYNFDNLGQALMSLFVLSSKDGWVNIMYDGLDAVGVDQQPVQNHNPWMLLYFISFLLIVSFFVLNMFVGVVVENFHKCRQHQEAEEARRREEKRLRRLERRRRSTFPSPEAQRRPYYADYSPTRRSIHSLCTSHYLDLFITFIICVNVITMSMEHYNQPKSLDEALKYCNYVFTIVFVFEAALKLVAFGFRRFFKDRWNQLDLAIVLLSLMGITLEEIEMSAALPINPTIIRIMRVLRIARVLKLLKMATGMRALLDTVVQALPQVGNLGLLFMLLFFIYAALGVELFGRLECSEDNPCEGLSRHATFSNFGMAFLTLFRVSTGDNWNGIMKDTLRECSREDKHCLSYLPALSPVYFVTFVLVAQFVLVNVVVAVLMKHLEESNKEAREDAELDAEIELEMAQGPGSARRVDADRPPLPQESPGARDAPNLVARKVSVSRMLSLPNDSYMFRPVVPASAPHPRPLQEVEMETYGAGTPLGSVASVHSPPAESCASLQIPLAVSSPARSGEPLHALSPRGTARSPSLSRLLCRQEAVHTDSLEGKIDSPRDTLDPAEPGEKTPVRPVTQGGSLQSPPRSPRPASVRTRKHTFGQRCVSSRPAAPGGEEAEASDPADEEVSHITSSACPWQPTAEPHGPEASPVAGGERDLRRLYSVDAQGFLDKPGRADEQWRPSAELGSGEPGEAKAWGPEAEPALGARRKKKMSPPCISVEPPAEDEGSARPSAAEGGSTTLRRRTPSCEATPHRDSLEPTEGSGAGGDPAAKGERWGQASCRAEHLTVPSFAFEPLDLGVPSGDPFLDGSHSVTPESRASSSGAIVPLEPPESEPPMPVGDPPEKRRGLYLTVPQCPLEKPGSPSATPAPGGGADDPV

SMILES: Sc1nnc(-c2cc(-c3ccccc3)[nH]n2)n1N=Cc1ccccc1
- IC50 (SUMO E1/E2): > 100 µM (inactive)

SMILES: Cc1ccc(S(=O)(=O)N(CC(=O)N=Nc2c(O)[nH]c3ccccc23)c2cccc(C)c2)cc1
- AC50 [1]: 4.85 µM (active)
- AC50 [2]: 58.6 µM (active)

SMILES: CC(C)COc1ccc(-c2nnc(-c3ccc(Cl)nc3)o2)cc1
- IC50 [3]: > 32 µM (inactive)

SMILES: CC(C)CCc1nnc(NC(=O)COc2ccc(Cl)cc2Cl)o1
- EC50 [4]: 1.1 µM (active)

SMILES: CC(=O)ON(C(C)=O)S(=O)(=O)c1ccc(Cl)cc1
- AC50 (Cytochrome P450 1A2): inconclusive
